Measured values as given in patent US7569577B2, “Quinazoline derivatives as tyrosine kinase inhibitors” (Astrazeneca AB, priority 2003, dated 2009).

How the values were obtained:
[1] = target: T1, EGFR tyrosine kinase (Homo sapiens, UniProt P00533); test: Protein tyrosine kinase phosphorylation assay, Test (a); type: biochemical; details: ATP at Km concentration; read-out: IC50 (nM) Test (a) (Inhibition of EGFR tyrosine kinase protein phosphorylation)
T1 construct: Recombinant intracellular fragments of EGFR, erbB2 and erbB4; made in house; host or cells: baculovirus/Sf21 insect cells (cleared lysate used)
Procedure: This test measures the ability of a test compound to inhibit the phosphorylation of a tyrosine containing polypeptide substrate by EGFR, erbB2 or erbB4 tyrosine kinase enzyme.
Recombinant intracellular fragments of EGFR, erbB2 and erbB4 (accession numbers X00588, X03363 and L07868 respectively) were cloned and expressed in the baculovirus/Sf21 system. Lysates were prepared from these cells by treatment with ice-cold lysis buffer (20 mM N-2-hydroxyethylpiperizine-N′-2-ethanesulfonic acid (HEPES) pH 7.5, 150 mM NaCl, 10% glycerol, 1% Triton X-100, 1.5 mM MgCl2, 1 mM ethylene glycol-bis(β-aminoethyl ether) N′,N′,N′,N′-tetraacetic acid (EGTA), plus protease inhibitors and then cleared by centrifugation.
Constitutive kinase activity of these recombinant proteins was determined by their ability to phosphorylate a synthetic peptide (made up of a random co-polymer of Glutamic Acid, Alanine and Tyrosine in the ratio of 6:3:1). Specifically, Maxisorb™ 96-well immunoplates were coated with synthetic peptide (0.2 μg of peptide in a 200 μl phosphate buffered saline (PBS) solution and incubated at 4° C. overnight). Plates were washed in 50 mM HEPES pH 7.4 at room temperature to remove any excess unbound synthetic peptide. EGFR or erbB2 activities were assessed by incubation in peptide coated plates for 20 minutes at room temperature in 100 mM HEPES pH 7.4 at room temperature, adenosine trisphosphate (ATP) at Km concentration for the respective enzyme, 10 mM MnCl2, 0.1 mM Na3VO4, 0.2 mM DL-dithiothreitol (DTT), 0.1% Triton X-100 with test compound in DMSO (final concentration of 2.5%). Reactions were terminated by the removal of the liquid components of the assay followed by washing of the plates with PBS-T (phosphate buffered saline with 0.5% Tween 20).
The immobilised phospho-peptide product of the reaction was detected by immunological methods. Firstly, plates were incubated for 90 minutes at room temperature with anti-phosphotyrosine primary antibodies that were raised in the mouse (4G10 from Upstate Biotechnology). Following extensive washing, plates were treated with Horseradish Peroxidase (HRP) conjugated sheep anti-mouse secondary antibody (NXA931 from Amersham) for 60 minutes at room temperature. After further washing, HRP activity in each well of the plate was measured colorimetrically using 22′-Azino-di-[3-ethylbenzthiazoline sulfonate (6)] diammonium salt crystals (ABTS™ from Roche) as a substrate.
Quantification of colour development and thus enzyme activity was achieved by the measurement of absorbance at 405 nm on a Molecular Devices ThermoMax microplate reader. Kinase inhibition for a given compound was expressed as an IC50 value. […] The range of phosphorylation was calculated from the positive (vehicle plus ATP) and negative (vehicle minus ATP) control values.

[2] = test system: KB cells; test: EGFR driven KB cell proliferation assay, Test (b); type: cell-based; details: Homo sapiens, 96 h, EGF 1 ng/ml, 4 days, MTT
Procedure: This assay measures the ability of a test compound to inhibit the proliferation of KB cells (human naso-pharangeal carcinoma obtained from the American Type Culture Collection (ATCC)).
KB cells were cultured in Dulbecco's modified Eagle's medium (DMEM) containing 10% foetal calf serum, 2 mM glutamine and non-essential amino acids at 37° C. in a 7.5% CO2 air incubator. Cells were harvested from the stock flasks using Trypsin/ethylaminediaminetetraacetic acid (EDTA). Cell density was measured using a haemocytometer and viability was calculated using trypan blue solution before being seeded at a density of 1.25×10^3 cells per well of a 96 well plate in DMEM containing 2.5% charcoal stripped serum, 1 mM glutamine and non-essential amino acids at 37° C. in 7.5% CO2 and allowed to settle for 4 hours.
Following adhesion to the plate, the cells are treated with or without EGF (final concentration of 1 ng/ml) and with or without compound at a range of concentrations in dimethylsulfoxide (DMSO) (0.1% final) before incubation for 4 days. Following the incubation period, cell numbers were determined by addition of 50 μl of 3-(4,5-Dimethylthiazol-2-yl)-2,5-diphenyltetrazolium bromide (MTT) (stock 5 mg/ml) for 2 hours. MTT solution was then tipped off, the plate gently tapped dry and the cells dissolved upon the addition of 100 μl of DMSO.
Absorbance of the solubilised cells was read at 540 nm using a Molecular Devices ThermoMax microplate reader. Inhibition of proliferation was expressed as an IC50 value. […] The range of proliferation was calculated from the positive (vehicle plus EGF) and negative (vehicle minus EGF) control values.

T1 sequence (P00533 669-1210 limits assumed): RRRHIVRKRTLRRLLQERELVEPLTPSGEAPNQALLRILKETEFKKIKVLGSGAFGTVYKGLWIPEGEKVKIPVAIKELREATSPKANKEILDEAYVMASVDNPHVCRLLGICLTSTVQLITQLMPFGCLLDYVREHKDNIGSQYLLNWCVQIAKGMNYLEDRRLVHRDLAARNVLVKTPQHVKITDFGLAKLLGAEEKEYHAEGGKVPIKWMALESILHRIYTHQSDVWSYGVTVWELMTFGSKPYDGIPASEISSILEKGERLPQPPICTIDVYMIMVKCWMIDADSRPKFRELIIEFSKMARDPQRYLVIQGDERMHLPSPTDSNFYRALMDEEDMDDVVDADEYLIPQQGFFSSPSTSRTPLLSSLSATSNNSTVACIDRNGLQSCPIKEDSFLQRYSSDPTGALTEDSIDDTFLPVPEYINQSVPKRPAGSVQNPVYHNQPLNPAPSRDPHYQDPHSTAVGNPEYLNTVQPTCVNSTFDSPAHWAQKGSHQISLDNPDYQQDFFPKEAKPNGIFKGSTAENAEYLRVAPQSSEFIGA

Row | Structure (SMILES) | melting point [°C] | IC50 [1] [nM] | IC50 [2] [nM]
1 | COc1cc2c(Nc3ccc(Cl)cc3F)ncnc2cc1OC1CCN(C(=O)[C@H](C)O)CC1 (hydrate or solvate) [Example 32] | 149 | – | –
2 | COc1cc2c(Nc3ccc(Cl)cc3F)ncnc2cc1OC1CCN(C(=O)[C@@H](C)O)CC1 (hydrate or solvate) [Example 33, (2R)-1-[4-({4-[4-chloro-2-fluoroanilino]-6-methoxyquinazolin-7-yl}oxy)piperidin-1-yl]-1-oxopropan-2-ol] | 118 | – | –
3 | COc1cc2c(Nc3cccc(Cl)c3F)ncnc2cc1OC1CCN(C(=O)[C@@H]2CCCN2C)CC1 (hydrate or solvate) [Example 34, N-(3-chloro-2-fluorophenyl)-6-methoxy-7-{[1-(1-methyl-L-prolyl)piperidin-4-yl]oxy}quinazolin-4-amine] | 193 | – | –
4 | COc1cc2c(Nc3cccc(Cl)c3F)ncnc2cc1OC1CCN(C(=O)CO)CC1 [4[1], 2-[4-({4-[3-Chloro-2-fluoroanilino]-6-methoxyquinazolin-7-yl}oxy)piperidin-1-yl]-2-oxoethanol] | – | 30 | 37
5 | COCCC(=O)N1CCC(Oc2cc3ncnc(Nc4cccc(Cl)c4F)c3cc2OC)CC1 [4[3], N-(3-Chloro-2-fluorophenyl)-6-methoxy-7-{[1-(3-methoxypropanoyl)piperidin-4-yl]oxy}quinazolin-4-amine] | – | 65 | 84

Continued, values first:

Row | melting point [°C] | IC50 [1] [nM] | IC50 [2] [nM] | Structure (SMILES)
6 | 143.6 | – | – | COc1cc2c(Nc3ccc(F)c(Cl)c3)ncnc2cc1OC1CCN(C(=O)[C@@H](C)O)CC1 (hydrate or solvate) [Example 23, (2R)-1-[4-({4-[3-Chloro-4-fluoroanilino]-6methoxyquinazolin-7-yl}oxy)piperidin-1-yl]-1-oxopropan-2-ol]
7 | – | 52 | 109 | COc1cc2c(Nc3cccc(Cl)c3F)ncnc2cc1OC1CCN(C(=O)CCO)CC1 [4[4], 3-[4-({4-[3-Chloro-2-fluoroanilino]-6-methoxyquinazolin-7-yl}oxy)piperidin-1-yl]-3-oxopropan-1-ol]
8 | 110 to 111 | 76 | 112 | COCCOCC(=O)N1CCC(Oc2cc3ncnc(Nc4cccc(Cl)c4F)c3cc2OC)CC1 [Example 2, N-(3-Chloro-2-fluorophenyl)-6-methoxy-7-({1-[(2-methoxyethoxy)acetyl]piperidin-4-yl}oxy)quinazolin-4-amine]
9 | – | 41 | 55 | COCC(=O)N1CCC(Oc2cc3ncnc(Nc4cccc(Cl)c4F)c3cc2OC)CC1 [Example 3, N-(3-Chloro-2-fluorophenyl)-6methoxy-7-{[1-(methoxyacetyl)piperidin-4-yl]oxy}quinazolin-4-amine]
10 | 107 to 111 | – | – | COc1cc2c(Nc3cccc(Cl)c3F)ncnc2cc1OC1CCN(C(=O)[C@H](C)O)CC1 [Example 4[5], (2S)-1-[4-({4-[3-chloro-2-fluoroanilino]-6-methoxyquinazolin-7-yl}oxy)piperidin-1-yl]-1-oxopropan-2-ol]
11 | 120 to 121 | – | – | COc1cc2c(Nc3cccc(Cl)c3F)ncnc2cc1O[C@H]1CCCN(C(=O)CN2CCN(C)CC2)C1 [Example 7, N-(3-Chloro-2-fluorophenyl)-6-methoxy-7-({(3S)-1-[(4-methylpiperazin-1-yl)acetyl]piperidin-3-yl}oxy)quinazolin-4-amine]
12 | 189 to 189.5 | – | – | COc1cc2c(Nc3cccc(Cl)c3F)ncnc2cc1OC1CCN(C(=O)[C@@H](C)O)CC1 [Example 9, (2R)-1-[4-({4-[3-Chloro-2-fluoroanilino]-6-methoxyquinazolin-7-yl}oxy)piperidin-1-yl]-1-oxopropan-2-ol]
